Reference: ChEMBL document CHEMBL2331489, “Novel cinnoline-based inhibitors of LRRK2 kinase activity” (Bioorg Med Chem Lett, 2013)

target: Dual specificity tyrosine-phosphorylation-regulated kinase 1B (Homo sapiens) (UniProt Q9Y463); assay: Inhibition of DYRK1B (unknown origin) at 10 uM relative to control

| inhibition | SMILES |
| --- | --- |
| 9% | CC(C)Nc1c(C(N)=O)cnc2cc(-c3ccc(S(C)(=O)=O)cc3)ccc12 |
| 7% | CC(C)Nc1c(C(N)=O)nnc2cc(N3CCOCC3)ccc12 |

target: Glycogen synthase kinase-3 beta (Homo sapiens) (UniProt P49841); assay: Inhibition of GSK3beta (unknown origin) at 10 uM relative to control

| inhibition | SMILES |
| --- | --- |
| 6% | CC(C)Nc1c(C(N)=O)cnc2cc(-c3ccc(S(C)(=O)=O)cc3)ccc12 |
| 42% | CC(C)Nc1c(C(N)=O)nnc2cc(N3CCOCC3)ccc12 |

target: Serine/threonine-protein kinase PAK 4 (Homo sapiens) (UniProt O96013); assay: Inhibition of PAK4 (unknown origin) at 10 uM relative to control
Sequence (O96013 whole entry, looked up): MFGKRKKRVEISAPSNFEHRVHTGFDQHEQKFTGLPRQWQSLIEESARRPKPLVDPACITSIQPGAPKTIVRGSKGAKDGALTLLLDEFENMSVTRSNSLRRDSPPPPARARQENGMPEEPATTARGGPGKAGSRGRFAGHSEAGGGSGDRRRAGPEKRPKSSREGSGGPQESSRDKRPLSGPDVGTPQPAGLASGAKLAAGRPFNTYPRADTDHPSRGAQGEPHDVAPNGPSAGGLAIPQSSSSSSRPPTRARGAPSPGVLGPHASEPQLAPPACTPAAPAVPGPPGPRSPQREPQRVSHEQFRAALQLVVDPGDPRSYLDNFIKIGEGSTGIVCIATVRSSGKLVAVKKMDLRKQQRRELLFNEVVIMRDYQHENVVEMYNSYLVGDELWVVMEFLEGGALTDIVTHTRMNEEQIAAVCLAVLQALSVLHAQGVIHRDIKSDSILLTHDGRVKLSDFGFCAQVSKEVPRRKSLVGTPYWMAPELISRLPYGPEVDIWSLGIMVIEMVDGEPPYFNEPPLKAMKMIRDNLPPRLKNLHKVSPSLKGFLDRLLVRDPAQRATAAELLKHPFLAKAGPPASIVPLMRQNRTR

| inhibition | SMILES |
| --- | --- |
| 64% | CC(C)Nc1c(C(N)=O)cnc2cc(-c3ccc(S(C)(=O)=O)cc3)ccc12 |
| 59% | CC(C)Nc1c(C(N)=O)nnc2cc(N3CCOCC3)ccc12 |

target: Platelet-derived growth factor receptor alpha (Homo sapiens, UniProt P16234); assay: Inhibition of PDGFRalpha (unknown origin) at 10 uM relative to control

| inhibition | SMILES |
| --- | --- |
| 98% | CC(C)Nc1c(C(N)=O)cnc2cc(-c3ccc(S(C)(=O)=O)cc3)ccc12 |
| 98% | CC(C)Nc1c(C(N)=O)nnc2cc(N3CCOCC3)ccc12 |

target: Insulin receptor (Homo sapiens) (UniProt P06213); assay: Inhibition of INSR (unknown origin) at 10 uM relative to control

| inhibition | SMILES |
| --- | --- |
| 4% | CC(C)Nc1c(C(N)=O)cnc2cc(-c3ccc(S(C)(=O)=O)cc3)ccc12 |
| -1% | CC(C)Nc1c(C(N)=O)nnc2cc(N3CCOCC3)ccc12 |

target: Tyrosine-protein kinase JAK1 (Homo sapiens) (UniProt P23458); assay: Inhibition of JAK1 (unknown origin) at 10 uM relative to control

| inhibition | SMILES |
| --- | --- |
| 77% | CC(C)Nc1c(C(N)=O)cnc2cc(-c3ccc(S(C)(=O)=O)cc3)ccc12 |
| 72% | CC(C)Nc1c(C(N)=O)nnc2cc(N3CCOCC3)ccc12 |

target: T1, Aurora kinase A (Homo sapiens) (UniProt O14965); assay: Inhibition of Aurora A (unknown origin) at 10 uM relative to control
T1 sequence (whole entry): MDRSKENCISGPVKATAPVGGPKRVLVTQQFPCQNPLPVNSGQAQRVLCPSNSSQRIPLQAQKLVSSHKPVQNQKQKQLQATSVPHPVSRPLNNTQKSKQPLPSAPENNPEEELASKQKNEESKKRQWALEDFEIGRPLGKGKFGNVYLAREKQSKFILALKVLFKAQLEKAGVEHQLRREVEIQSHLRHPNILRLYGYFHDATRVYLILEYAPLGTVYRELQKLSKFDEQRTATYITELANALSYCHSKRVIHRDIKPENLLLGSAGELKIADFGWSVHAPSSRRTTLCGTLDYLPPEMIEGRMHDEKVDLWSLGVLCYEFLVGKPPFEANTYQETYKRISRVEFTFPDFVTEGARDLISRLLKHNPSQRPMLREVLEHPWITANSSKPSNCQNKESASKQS

| inhibition | SMILES |
| --- | --- |
| 60% | CC(C)Nc1c(C(N)=O)cnc2cc(-c3ccc(S(C)(=O)=O)cc3)ccc12 |
| 81% | CC(C)Nc1c(C(N)=O)nnc2cc(N3CCOCC3)ccc12 |

target: Receptor tyrosine-protein kinase erbB-4 (Homo sapiens) (UniProt Q15303); assay: Inhibition of ERBB4 (unknown origin) at 10 uM relative to control

| inhibition | SMILES |
| --- | --- |
| 11% | CC(C)Nc1c(C(N)=O)cnc2cc(-c3ccc(S(C)(=O)=O)cc3)ccc12 |
| 15% | CC(C)Nc1c(C(N)=O)nnc2cc(N3CCOCC3)ccc12 |

target: Cyclin-dependent kinase 5/CDK5 activator 1 (Homo sapiens) (UniProt Q00535+Q15078); assay: Inhibition of CDK5/P25 (unknown origin) at 10 uM relative to control; format: protein-complex assay

| inhibition | SMILES |
| --- | --- |
| 2% | CC(C)Nc1c(C(N)=O)cnc2cc(-c3ccc(S(C)(=O)=O)cc3)ccc12 |
| 3% | CC(C)Nc1c(C(N)=O)nnc2cc(N3CCOCC3)ccc12 |

target: RAF proto-oncogene serine/threonine-protein kinase (Homo sapiens) (UniProt P04049); assay: Inhibition of RAF1 (unknown origin) at 10 uM relative to control

| inhibition | SMILES |
| --- | --- |
| 17% | CC(C)Nc1c(C(N)=O)cnc2cc(-c3ccc(S(C)(=O)=O)cc3)ccc12 |
| 27% | CC(C)Nc1c(C(N)=O)nnc2cc(N3CCOCC3)ccc12 |

target: PI3-kinase p110-alpha/p85-alpha (Homo sapiens) (UniProt P27986+P42336); assay: Inhibition of PIK3CA/PIK3R1 (unknown origin) at 10 uM relative to control; format: protein-complex assay

| inhibition | SMILES |
| --- | --- |
| -2% | CC(C)Nc1c(C(N)=O)cnc2cc(-c3ccc(S(C)(=O)=O)cc3)ccc12 |
| 15% | CC(C)Nc1c(C(N)=O)nnc2cc(N3CCOCC3)ccc12 |

target: Receptor-interacting serine/threonine-protein kinase 2 (Homo sapiens) (UniProt O43353); assay: Inhibition of RIPK2 (unknown origin) at 10 uM relative to control
Sequence (O43353 whole entry): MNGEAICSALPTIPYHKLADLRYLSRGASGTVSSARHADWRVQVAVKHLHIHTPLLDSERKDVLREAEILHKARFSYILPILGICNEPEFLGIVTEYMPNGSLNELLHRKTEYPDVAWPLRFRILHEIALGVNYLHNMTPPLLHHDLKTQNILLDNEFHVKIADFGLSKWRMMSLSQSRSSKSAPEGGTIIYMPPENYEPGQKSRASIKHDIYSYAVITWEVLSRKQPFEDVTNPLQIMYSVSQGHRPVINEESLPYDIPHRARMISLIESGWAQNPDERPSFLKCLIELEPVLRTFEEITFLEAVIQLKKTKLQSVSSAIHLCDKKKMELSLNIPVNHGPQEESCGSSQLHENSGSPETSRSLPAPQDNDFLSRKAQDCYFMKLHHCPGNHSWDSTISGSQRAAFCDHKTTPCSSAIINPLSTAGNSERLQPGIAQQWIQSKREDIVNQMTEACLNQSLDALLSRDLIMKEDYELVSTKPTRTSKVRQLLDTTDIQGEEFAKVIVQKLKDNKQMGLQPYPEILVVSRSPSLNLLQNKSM

| inhibition | SMILES |
| --- | --- |
| 52% | CC(C)Nc1c(C(N)=O)cnc2cc(-c3ccc(S(C)(=O)=O)cc3)ccc12 |
| 44% | CC(C)Nc1c(C(N)=O)nnc2cc(N3CCOCC3)ccc12 |

target: Protein-tyrosine kinase 2-beta (Homo sapiens) (UniProt Q14289); assay: Inhibition of FAK2 (unknown origin) at 10 uM relative to control

| inhibition | SMILES |
| --- | --- |
| 47% | CC(C)Nc1c(C(N)=O)cnc2cc(-c3ccc(S(C)(=O)=O)cc3)ccc12 |
| 39% | CC(C)Nc1c(C(N)=O)nnc2cc(N3CCOCC3)ccc12 |

target: Leucine-rich repeat serine/threonine-protein kinase 2 (Homo sapiens, UniProt Q5S007); assay: Inhibition of LRRK2 (unknown origin) at 10 uM relative to control
Sequence (Q5S007 whole entry): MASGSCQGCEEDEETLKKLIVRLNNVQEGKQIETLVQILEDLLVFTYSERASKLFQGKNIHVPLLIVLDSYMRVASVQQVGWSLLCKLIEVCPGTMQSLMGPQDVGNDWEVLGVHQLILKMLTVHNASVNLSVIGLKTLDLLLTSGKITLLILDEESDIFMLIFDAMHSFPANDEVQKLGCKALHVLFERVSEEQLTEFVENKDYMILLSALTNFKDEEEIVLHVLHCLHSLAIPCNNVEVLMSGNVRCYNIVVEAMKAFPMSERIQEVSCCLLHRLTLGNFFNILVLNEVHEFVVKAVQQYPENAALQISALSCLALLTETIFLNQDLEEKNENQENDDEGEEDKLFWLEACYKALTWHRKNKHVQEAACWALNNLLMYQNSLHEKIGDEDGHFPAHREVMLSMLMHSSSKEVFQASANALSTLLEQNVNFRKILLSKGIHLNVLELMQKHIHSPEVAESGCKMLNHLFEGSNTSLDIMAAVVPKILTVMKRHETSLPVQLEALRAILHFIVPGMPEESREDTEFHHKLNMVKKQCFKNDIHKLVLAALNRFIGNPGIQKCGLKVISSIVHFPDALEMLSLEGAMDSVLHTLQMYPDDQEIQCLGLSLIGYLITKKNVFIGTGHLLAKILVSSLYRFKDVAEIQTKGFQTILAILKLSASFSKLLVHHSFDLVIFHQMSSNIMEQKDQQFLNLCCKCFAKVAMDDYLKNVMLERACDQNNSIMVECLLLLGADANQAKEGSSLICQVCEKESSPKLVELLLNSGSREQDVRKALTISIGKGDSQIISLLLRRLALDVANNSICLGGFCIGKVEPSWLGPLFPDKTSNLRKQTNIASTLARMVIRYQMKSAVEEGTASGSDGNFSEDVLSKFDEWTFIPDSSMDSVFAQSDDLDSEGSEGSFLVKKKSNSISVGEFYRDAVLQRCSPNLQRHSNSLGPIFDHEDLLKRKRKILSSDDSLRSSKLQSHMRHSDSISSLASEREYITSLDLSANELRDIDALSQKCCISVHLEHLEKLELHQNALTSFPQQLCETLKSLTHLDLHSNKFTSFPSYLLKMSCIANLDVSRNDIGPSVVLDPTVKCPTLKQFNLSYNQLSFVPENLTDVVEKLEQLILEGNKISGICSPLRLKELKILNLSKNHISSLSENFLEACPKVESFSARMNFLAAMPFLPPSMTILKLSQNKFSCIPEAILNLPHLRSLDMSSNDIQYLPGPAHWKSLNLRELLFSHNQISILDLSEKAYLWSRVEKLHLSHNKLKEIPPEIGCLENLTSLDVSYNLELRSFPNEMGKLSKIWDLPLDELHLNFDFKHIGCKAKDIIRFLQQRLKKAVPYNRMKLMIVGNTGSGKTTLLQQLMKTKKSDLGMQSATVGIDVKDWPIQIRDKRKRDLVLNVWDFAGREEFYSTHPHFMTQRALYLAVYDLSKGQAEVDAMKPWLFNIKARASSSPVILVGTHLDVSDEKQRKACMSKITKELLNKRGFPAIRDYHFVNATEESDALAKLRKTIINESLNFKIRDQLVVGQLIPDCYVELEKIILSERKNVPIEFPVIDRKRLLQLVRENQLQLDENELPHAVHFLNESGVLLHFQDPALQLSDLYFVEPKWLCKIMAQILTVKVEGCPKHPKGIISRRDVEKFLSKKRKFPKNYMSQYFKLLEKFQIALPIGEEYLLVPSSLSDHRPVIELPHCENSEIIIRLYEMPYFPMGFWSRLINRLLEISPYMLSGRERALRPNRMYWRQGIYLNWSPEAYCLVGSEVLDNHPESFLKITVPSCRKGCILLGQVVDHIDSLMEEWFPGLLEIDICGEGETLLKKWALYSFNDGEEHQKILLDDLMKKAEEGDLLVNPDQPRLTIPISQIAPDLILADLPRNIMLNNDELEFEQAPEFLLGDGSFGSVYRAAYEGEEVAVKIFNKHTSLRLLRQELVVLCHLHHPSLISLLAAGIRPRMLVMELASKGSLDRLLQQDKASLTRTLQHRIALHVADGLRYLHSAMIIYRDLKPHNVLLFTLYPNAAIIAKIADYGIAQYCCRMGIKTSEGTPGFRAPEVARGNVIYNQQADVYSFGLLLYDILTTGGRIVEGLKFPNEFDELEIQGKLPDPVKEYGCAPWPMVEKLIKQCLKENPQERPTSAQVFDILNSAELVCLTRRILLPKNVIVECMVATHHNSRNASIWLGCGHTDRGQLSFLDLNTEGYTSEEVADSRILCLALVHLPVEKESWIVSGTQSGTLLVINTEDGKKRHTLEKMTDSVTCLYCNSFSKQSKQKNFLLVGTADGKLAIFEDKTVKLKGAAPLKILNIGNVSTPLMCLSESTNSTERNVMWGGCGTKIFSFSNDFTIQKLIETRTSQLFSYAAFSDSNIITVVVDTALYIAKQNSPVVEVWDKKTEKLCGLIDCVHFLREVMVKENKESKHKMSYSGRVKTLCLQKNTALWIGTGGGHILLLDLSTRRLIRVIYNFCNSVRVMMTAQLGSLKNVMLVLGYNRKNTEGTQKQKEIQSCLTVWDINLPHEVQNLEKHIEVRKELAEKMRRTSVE

| inhibition | SMILES |
| --- | --- |
| 96% | CC(C)Nc1c(C(N)=O)cnc2cc(-c3ccc(S(C)(=O)=O)cc3)ccc12 |
| 99% | CC(C)Nc1c(C(N)=O)nnc2cc(N3CCOCC3)ccc12 |

target: Macrophage colony-stimulating factor 1 receptor (Homo sapiens, UniProt P07333); assay: Inhibition of CSF1R (unknown origin) at 10 uM relative to control

| inhibition | SMILES |
| --- | --- |
| 98% | CC(C)Nc1c(C(N)=O)cnc2cc(-c3ccc(S(C)(=O)=O)cc3)ccc12 |
| 97% | CC(C)Nc1c(C(N)=O)nnc2cc(N3CCOCC3)ccc12 |

target: Serine/threonine-protein kinase 16 (Homo sapiens) (UniProt O75716); assay: Inhibition of STK16 (unknown origin) at 10 uM relative to control
Sequence (O75716 whole entry): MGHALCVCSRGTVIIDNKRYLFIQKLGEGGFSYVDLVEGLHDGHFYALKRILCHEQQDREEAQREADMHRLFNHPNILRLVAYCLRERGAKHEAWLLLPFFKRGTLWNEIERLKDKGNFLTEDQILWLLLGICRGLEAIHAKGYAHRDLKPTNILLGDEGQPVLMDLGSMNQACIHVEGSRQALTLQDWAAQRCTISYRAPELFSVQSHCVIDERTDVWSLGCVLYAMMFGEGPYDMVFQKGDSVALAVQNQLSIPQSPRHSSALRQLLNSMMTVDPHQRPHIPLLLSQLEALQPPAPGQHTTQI

| inhibition | SMILES |
| --- | --- |
| 39% | CC(C)Nc1c(C(N)=O)cnc2cc(-c3ccc(S(C)(=O)=O)cc3)ccc12 |
| 40% | CC(C)Nc1c(C(N)=O)nnc2cc(N3CCOCC3)ccc12 |

target: Serine/threonine-protein kinase PLK2 (Homo sapiens) (UniProt Q9NYY3); assay: Inhibition of PLK2 (unknown origin) at 10 uM relative to control

| inhibition | SMILES |
| --- | --- |
| 7% | CC(C)Nc1c(C(N)=O)cnc2cc(-c3ccc(S(C)(=O)=O)cc3)ccc12 |
| 6% | CC(C)Nc1c(C(N)=O)nnc2cc(N3CCOCC3)ccc12 |

target: Mitogen-activated protein kinase 10 (Homo sapiens) (UniProt P53779); assay: Inhibition of MAPK10 (unknown origin) at 10 uM relative to control
Sequence (P53779 whole entry): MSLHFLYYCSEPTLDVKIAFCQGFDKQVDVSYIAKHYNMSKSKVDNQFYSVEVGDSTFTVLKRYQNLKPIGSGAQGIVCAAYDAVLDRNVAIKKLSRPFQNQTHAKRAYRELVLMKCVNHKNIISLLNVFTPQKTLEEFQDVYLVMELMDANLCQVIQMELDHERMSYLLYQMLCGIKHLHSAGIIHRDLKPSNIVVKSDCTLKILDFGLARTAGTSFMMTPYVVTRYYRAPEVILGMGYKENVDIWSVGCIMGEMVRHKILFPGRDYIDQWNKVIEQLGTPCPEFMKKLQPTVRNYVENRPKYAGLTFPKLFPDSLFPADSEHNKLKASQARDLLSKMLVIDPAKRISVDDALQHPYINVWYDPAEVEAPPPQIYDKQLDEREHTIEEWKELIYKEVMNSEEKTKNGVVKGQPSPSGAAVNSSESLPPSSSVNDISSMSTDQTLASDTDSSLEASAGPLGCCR

| inhibition | SMILES |
| --- | --- |
| 4% | CC(C)Nc1c(C(N)=O)cnc2cc(-c3ccc(S(C)(=O)=O)cc3)ccc12 |
| 17% | CC(C)Nc1c(C(N)=O)nnc2cc(N3CCOCC3)ccc12 |

target: Rho-associated protein kinase 2 (Homo sapiens) (UniProt O75116); assay: Inhibition of ROCK2 (unknown origin) at 10 uM relative to control

| inhibition | SMILES |
| --- | --- |
| 86% | CC(C)Nc1c(C(N)=O)cnc2cc(-c3ccc(S(C)(=O)=O)cc3)ccc12 |
| 78% | CC(C)Nc1c(C(N)=O)nnc2cc(N3CCOCC3)ccc12 |

target: Serine/threonine-protein kinase PLK1 (Homo sapiens) (UniProt P53350); assay: Inhibition of PLK1 (unknown origin) at 10 uM relative to control

| inhibition | SMILES |
| --- | --- |
| 1% | CC(C)Nc1c(C(N)=O)cnc2cc(-c3ccc(S(C)(=O)=O)cc3)ccc12 |
| 3% | CC(C)Nc1c(C(N)=O)nnc2cc(N3CCOCC3)ccc12 |

target: Tyrosine-protein kinase ABL1 (Homo sapiens) (UniProt P00519); assay: Inhibition of ABL1 (unknown origin) at 10 uM relative to control

| inhibition | SMILES |
| --- | --- |
| 50% | CC(C)Nc1c(C(N)=O)cnc2cc(-c3ccc(S(C)(=O)=O)cc3)ccc12 |
| 56% | CC(C)Nc1c(C(N)=O)nnc2cc(N3CCOCC3)ccc12 |

target: Serine/threonine-protein kinase MARK2 (Homo sapiens) (UniProt Q7KZI7); assay: Inhibition of MARK2 (unknown origin) at 10 uM relative to control

| inhibition | SMILES |
| --- | --- |
| 94% | CC(C)Nc1c(C(N)=O)cnc2cc(-c3ccc(S(C)(=O)=O)cc3)ccc12 |
| 81% | CC(C)Nc1c(C(N)=O)nnc2cc(N3CCOCC3)ccc12 |

target: Protein kinase C beta type (Homo sapiens) (UniProt P05771); assay: Inhibition of PRKCbeta1 (unknown origin) at 10 uM relative to control
Sequence (P05771 2-671 limits assumed): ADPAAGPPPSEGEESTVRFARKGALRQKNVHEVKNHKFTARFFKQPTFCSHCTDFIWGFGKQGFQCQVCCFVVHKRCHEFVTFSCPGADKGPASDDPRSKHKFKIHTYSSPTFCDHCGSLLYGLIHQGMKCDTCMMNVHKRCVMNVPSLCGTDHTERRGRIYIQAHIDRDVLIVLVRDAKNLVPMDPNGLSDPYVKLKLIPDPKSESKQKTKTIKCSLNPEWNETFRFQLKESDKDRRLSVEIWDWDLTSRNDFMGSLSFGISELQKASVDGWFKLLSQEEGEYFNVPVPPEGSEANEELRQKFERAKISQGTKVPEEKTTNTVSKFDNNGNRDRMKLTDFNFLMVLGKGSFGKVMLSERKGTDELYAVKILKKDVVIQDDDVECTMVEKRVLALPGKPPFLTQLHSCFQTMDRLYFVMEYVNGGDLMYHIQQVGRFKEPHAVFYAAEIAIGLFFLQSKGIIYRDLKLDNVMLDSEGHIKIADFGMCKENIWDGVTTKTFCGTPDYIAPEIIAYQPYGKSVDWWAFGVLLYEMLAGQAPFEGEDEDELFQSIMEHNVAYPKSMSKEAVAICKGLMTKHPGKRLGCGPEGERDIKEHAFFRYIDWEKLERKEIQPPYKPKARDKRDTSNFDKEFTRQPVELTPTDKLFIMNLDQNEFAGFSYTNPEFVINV

| inhibition | SMILES |
| --- | --- |
| 8% | CC(C)Nc1c(C(N)=O)cnc2cc(-c3ccc(S(C)(=O)=O)cc3)ccc12 |
| 0% | CC(C)Nc1c(C(N)=O)nnc2cc(N3CCOCC3)ccc12 |

target: Mitogen-activated protein kinase 1 (Homo sapiens) (UniProt P28482); assay: Inhibition of MAPK1 (unknown origin) at 10 uM relative to control

| inhibition | SMILES |
| --- | --- |
| 7% | CC(C)Nc1c(C(N)=O)cnc2cc(-c3ccc(S(C)(=O)=O)cc3)ccc12 |
| -5% | CC(C)Nc1c(C(N)=O)nnc2cc(N3CCOCC3)ccc12 |

target: Tyrosine-protein kinase SYK (Homo sapiens) (UniProt P43405); assay: Inhibition of SYK (unknown origin) at 10 uM relative to control

| inhibition | SMILES |
| --- | --- |
| 72% | CC(C)Nc1c(C(N)=O)cnc2cc(-c3ccc(S(C)(=O)=O)cc3)ccc12 |
| 81% | CC(C)Nc1c(C(N)=O)nnc2cc(N3CCOCC3)ccc12 |

target: Calcium/calmodulin-dependent protein kinase type II subunit alpha (Homo sapiens) (UniProt Q9UQM7); assay: Inhibition of CAMK2alpha (unknown origin) at 10 uM relative to control

| inhibition | SMILES |
| --- | --- |
| 0% | CC(C)Nc1c(C(N)=O)cnc2cc(-c3ccc(S(C)(=O)=O)cc3)ccc12 |
| 17% | CC(C)Nc1c(C(N)=O)nnc2cc(N3CCOCC3)ccc12 |

target: RAC-alpha serine/threonine-protein kinase (Homo sapiens) (UniProt P31749); assay: Inhibition of AKT1 (unknown origin) at 10 uM relative to control

| inhibition | SMILES |
| --- | --- |
| 5% | CC(C)Nc1c(C(N)=O)cnc2cc(-c3ccc(S(C)(=O)=O)cc3)ccc12 |
| 1% | CC(C)Nc1c(C(N)=O)nnc2cc(N3CCOCC3)ccc12 |
